Test results: patent US8183371B2, “Pyrazines as delta opioid receptor modulators” (Janssen Pharmaceutica NV, priority 2009, dated 2012)

How the values were obtained:
δ-opioid receptor = target: T1, δ-opioid receptor (Mus musculus, UniProt P32300); assay: [35S]GTPγS binding assay in NG108-15 cell membranes (delta opioid functional assay); format: biochemical; settings: for inhibition at 10 µM: 10 μM compound, read-out: GTPγS δ-opioid receptor % Inh @10 μM; for EC50: read-out: GTPγS δ-opioid receptor EC50
T1 construct: NG108-15 cell membranes were purchased from Applied Cell Sciences (Rockville, Md.); host or cells: NG108-15 cell membranes (purchased)
Procedure: Methods: NG108-15 cell membranes were purchased from Applied Cell Sciences (Rockville, Md.). 5 mg/mL of membrane protein was suspended in 10 mM TRIS-HCl pH 7.2, 2 mM EDTA, 10% sucrose. Membranes were maintained at 4-8° C. A 1 mL volume of membranes was added into 10 mL cold binding assay buffer. The assay buffer contained 50 mM Tris, pH 7.6, 5 mM MgCl2, 100 mM NaCl, 1 mM DTT and 1 mM EGTA. The membrane suspension was homogenized twice with a Polytron, and centrifuged at 3000 rpm for 10 min. The supernatant was then centrifuged at 18,000 rpm for 20 min. Ten mL of assay buffer was added into the pellet containing tube. The pellet and buffer were mixed with a Polytron.
Incubation procedure: The pellet membranes (75 μg/mL) were preincubated with SPA beads (10 mg/mL) at 25° C. for 45 min in the assay buffer. The SPA beads (5 mg/mL) coupled with membranes (37.5 μg/mL) were then incubated with 0.1 nM [^35S]GTPγS in the same Tris buffer containing 100 μM GDP in total volume of 200 μL. 200 nM of receptor agonists was used to stimulate [^35S]-GTPγS binding. The basal binding was tested in the absence of agonists and non-specific binding was tested in the presence of 10 μM unlabeled GTPγS.
Data % of Basal=(stimulated−non specific)*100/(basal−non specific). Relative Efficacy of a compound at 200 nM=(% of Basal of test compound at 200 nM)/(Calculated Max of SNC80 dose response. Curve in prism).

delta opioid receptor = target: T2, delta opioid receptor (Rattus norvegicus, UniProt P33533); assay: Rat brain delta opioid receptor binding assay; settings: rat forebrain membranes; ~4 nM [3H]DPDPE; read-out: δ-binding (DPDPE ligand) Ki
T2 construct: from tissue; host or cells: forebrain of male Wistar rats
Procedure: (§1) Procedure: Male, Wistar rats (150-250 g, VAF, Charles River, Kingston, N.Y.) were killed by CO2, and their brains were removed and placed immediately in ice cold Tris HCl buffer (50 mM, pH 7.4). The forebrains were separated from the remainder of the brain by a coronal transection, beginning dorsally at the colliculi and passing ventrally through the midbrain-pontine junction. After dissection, the forebrains were homogenized in Tris buffer in a Teflon®-glass homogenizer. The homogenate was diluted to a concentration of 1 g of forebrain tissue per 80 mL Tris and centrifuged at 39,000×g for 10 min. The pellet was resuspended in the same volume of Tris buffer containing 5 mM MgCl2 with several brief pulses from a Polytron homogenizer. This particulate preparation was used for the delta opioid binding assays. Following incubation with the delta selective peptide ligand ˜4 nM [^3H]DPDPE or 0.25 nM [^3H]naltrindole at 25° C. for 2.5 h in a 96-well plate with total volume of 1 mL, the plate contents were filtered through Wallac filtermat B sheets on a Tomtec 96-well harvester. The filters were rinsed three times with 2 mL of 10 mM HEPES (pH 7.4), and dried in a 650 W microwave oven for 1.75 min twice. To each sample area 2×50 μL of Betaplate Scint scintillation fluid (LKB) was added and the radioactivity was quantified on a LKB (Wallac) 1205 BetaPlate liquid scintillation counter.
(§2) Analysis: The data from the scintillation counter were used to calculate either the % inhibition compared to control binding (when only a single concentration of test compound was evaluated) or a Ki value (when a range of concentrations was tested). Percent inhibition was calculated as: [(total dpm−test compound dpm)/(total dpm−nonspecific dpm)]*100. Kd and Ki values were calculated using GraphPad PRISM data analysis program.

mu opioid receptor = target: T3, mu opioid receptor (Rattus norvegicus, UniProt P33535); assay: Rat brain mu opioid receptor binding assay; settings: rat forebrain membranes; ~0.8 nM [3H]DAMGO; read-out: μ-binding Ki
T3 construct: from tissue; host or cells: forebrain of male Wistar rats
Procedure: as §1, with “mu” for “delta”, “ligand, ˜0.8” for “ligand ˜4”, “[^3H]DAMGO,” for “[^3H]DPDPE or 0.25 nM [^3H]naltrindole”, “total assay” for “total”, “7.4)” for “7.4),”, “2×40” for “2×50”
as §2

T1 sequence (P32300 whole entry): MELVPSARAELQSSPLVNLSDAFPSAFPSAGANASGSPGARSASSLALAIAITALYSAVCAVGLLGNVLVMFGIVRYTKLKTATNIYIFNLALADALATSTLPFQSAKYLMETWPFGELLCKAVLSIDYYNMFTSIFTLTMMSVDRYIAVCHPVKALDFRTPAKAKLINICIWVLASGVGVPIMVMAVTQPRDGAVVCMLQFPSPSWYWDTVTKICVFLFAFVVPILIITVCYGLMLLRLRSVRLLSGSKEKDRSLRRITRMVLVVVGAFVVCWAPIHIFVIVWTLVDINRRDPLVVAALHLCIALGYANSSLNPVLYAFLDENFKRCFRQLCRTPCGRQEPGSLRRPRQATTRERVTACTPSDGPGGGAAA
T2 sequence (P33533 whole entry): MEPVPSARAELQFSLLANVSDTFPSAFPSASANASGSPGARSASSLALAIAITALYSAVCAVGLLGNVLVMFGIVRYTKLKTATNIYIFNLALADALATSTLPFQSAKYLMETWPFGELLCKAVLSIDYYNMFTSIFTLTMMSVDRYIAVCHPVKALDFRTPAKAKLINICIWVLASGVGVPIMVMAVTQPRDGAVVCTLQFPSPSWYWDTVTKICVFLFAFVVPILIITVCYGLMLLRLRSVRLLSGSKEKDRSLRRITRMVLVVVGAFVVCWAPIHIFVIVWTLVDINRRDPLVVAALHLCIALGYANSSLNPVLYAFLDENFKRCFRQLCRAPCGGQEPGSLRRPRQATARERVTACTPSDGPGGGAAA
T3 sequence (P33535 whole entry): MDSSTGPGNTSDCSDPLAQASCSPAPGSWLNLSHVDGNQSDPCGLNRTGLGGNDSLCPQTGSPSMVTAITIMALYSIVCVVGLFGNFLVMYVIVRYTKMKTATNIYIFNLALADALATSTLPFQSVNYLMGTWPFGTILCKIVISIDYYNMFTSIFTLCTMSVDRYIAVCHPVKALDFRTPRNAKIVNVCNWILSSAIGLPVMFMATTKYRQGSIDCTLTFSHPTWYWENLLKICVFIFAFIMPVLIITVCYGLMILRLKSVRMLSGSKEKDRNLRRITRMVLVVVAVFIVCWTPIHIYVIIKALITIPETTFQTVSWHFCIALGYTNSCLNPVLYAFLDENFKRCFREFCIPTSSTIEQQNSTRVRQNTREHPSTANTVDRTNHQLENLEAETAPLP

| Structure (SMILES) | GTPγS δ-opioid receptor Rel Efficacy (δ-opioid receptor) | inhibition at 10 µM (δ-opioid receptor) [%] | EC50 (δ-opioid receptor) [µM] | Ki (delta opioid receptor) [µM] | Ki (mu opioid receptor) [µM] |
| --- | --- | --- | --- | --- | --- |
| COc1ccc(Oc2nc(-c3ccc(OC)nc3)cnc2NC[C@@H]2CCCN2)cc1 [Cpd 1] | 0.8696 | 6.57 | 0.0585 | 0.0006 | 2.39 |
| COc1ccc(Oc2nc(-c3cccnc3)cnc2NC[C@@H]2CCCN2)cc1 [Cpd 2, [3-(4-Methoxy-phenoxy)-5-pyridin-3-yl-pyrazin-2-yl]-pyrrolidin-2-(S)-ylmethyl-amine] | 1.0430 | 1 | 0.0297 | 0.0021 | 0.816 |
| COc1ccc(Oc2nc(C#Cc3cccnc3)cnc2NC[C@@H]2CCCN2)cc1 [Cpd 3, [3-(4-Methoxy-phenoxy)-5-pyridin-3-ylethynyl-pyrazin-2-yl]-pyrrolidin-2-(S)-ylmethyl-amine] | 1.0797 | 1 | 0.0462 | 0.0015 | 3.24 |
| COCC#Cc1cnc(NC[C@@H]2CCCN2)c(Oc2ccc(OC)cc2)n1 [Cpd 4] | 0.9477 | 1 | 0.0825 | 0.0019 | 4.98 |
| COc1ccc(Oc2nc(-c3cncnc3)cnc2NC[C@@H]2CCCN2)cc1F [Cpd 8] | 1.0302 |  | 0.148 | 0.0008 | 0.202 |
